The source of these data is US20250360212A1, “COMPOSITIONS AND USES OF PSCA TARGETED CHIMERIC ANTIGEN RECEPTOR MODIFIED CELLS EXPRESSING IL-15” (City of Hope, priority 2023, published 2025).

One experiment has as its system Capan-1 GR. Description: Effect of gemcitabine on gemcitabine-resistant cell lines (RTCA). Format: cell-based, human. The conditions noted are these: 1.6 uM and 3.2 uM; without medium change or with medium change at 1 h or 3 h; compared to parental cell line. The source says:
(§1) Gemcitabine-based therapy is currently the standard first-line therapy for patients with advanced PDAC. However, tumor recurrence after gemcitabine treatment may lead to short patient survival (Jia Y, Gu D, Wan J, et al. The role of GLI-SOX2 signaling axis for gemcitabine resistance in pancreatic cancer. Oncogene 2019; 38 (10): 1764-77. doi: 10.1038/s41388-018-0553-0 [published Online First: 2018 Oct. 31]). Therefore, it is critical to verify whether […] cells are effective in killing gemcitabine-resistant tumors in vitro and in vivo. In this case, we established two gemcitabine-resistant (GR) cell lines (Capan-1 GR and MIA Paca-2 GR) by exposing parental Capan-1 and MIA Paca-2 cells to increasing concentrations of gemcitabine for 9 months. […] Compared to the parental cell lines, Capan-1 GR and MIA Paca-2 GR were not killed by gemcitabine at concentrations of 1.6 uM and 3.2 uM, either without medium change or with medium change at 1 h or 3 h (FIG. 6B, FIGS. 10 and 11). We explored the anti-PC effect of […] cells targeting Capan-1 GR and MIA Paca-2 GR cells in vitro. […] We also measured the levels of CD25, CD69, CD107a, TNF-α, and IFN-γ expression of […] cells after co-incubation with GR cells and the parental cells. […] Next, we evaluated the therapeutic effect of […] cells against Capan-1 GR cells in vivo. The parental Capan-1 cells were injected as control.

For the next experiment, the system named is MIA Paca-2 GR. Described as above. Format: cell-based, human. The conditions noted are these: 1.6 uM and 3.2 uM; without medium change or with medium change at 1 h or 3 h; compared to parental cell line.
Excerpt: as §1

On to `Nc1ccn([C@@H]2O[C@H](CO)[C@@H](O)C2(F)F)c(=O)n1` [gemcitabine, 2′,2′-difluorodeoxycytidine], for which the “killing by gemcitabine (RTCA)” value in the experiment with Capan-1 GR and with MIA Paca-2 GR was “not killed” in each case.
